Test system: 454973-116-R2-J3-PDC complex spheroid viability
Assay: Anticancer human tumor 454973-116-R2-J3-PDC patient-derived pancreatic carcinoma cell line growth inhibition [POLQ]
Details: for IC50: curve of first compound; for viability, T/C: stronger effect = lower value
In short: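 Complex spheroid viability model combining PDC tumour cells with endothelial (HUVEC) and MSC stromal cells. Novobiocin, ART-558 or RP6685 were tested singly and in combination with standard and investigational anticancer drugs. Each was titrated in half-log steps from near clinical Cmax, or from 10 microM where Cmax was unknown.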

[1] = second compound 0.0316 µM, first compound 0.0316 µM
[2] = second compound 0.0316 µM, first compound 0.1 µM
[3] = second compound 0.0316 µM, first compound 0.316 µM
[4] = second compound 0.0316 µM, first compound 1 µM
[5] = second compound 0.0316 µM, first compound 3.16 µM
[6] = second compound 0.0316 µM, first compound 10 µM
[7] = second compound 0.1 µM, first compound 0.0316 µM
[8] = second compound 0.1 µM, first compound 0.1 µM
[9] = second compound 0.1 µM, first compound 0.316 µM
[10] = second compound 0.1 µM, first compound 1 µM
[11] = second compound 0.1 µM, first compound 3.16 µM
[12] = second compound 0.1 µM, first compound 10 µM
[13] = second compound 0.316 µM, first compound 0.0316 µM
[14] = second compound 0.316 µM, first compound 0.1 µM
[15] = second compound 0.316 µM, first compound 0.316 µM
[16] = second compound 0.316 µM, first compound 1 µM
[17] = second compound 0.316 µM, first compound 3.16 µM
[18] = second compound 0.316 µM, first compound 10 µM
[19] = second compound 1 µM, first compound 0.0316 µM
[20] = second compound 1 µM, first compound 0.1 µM
[21] = second compound 1 µM, first compound 0.316 µM
[22] = second compound 1 µM, first compound 1 µM
[23] = second compound 1 µM, first compound 3.16 µM
[24] = second compound 1 µM, first compound 10 µM
[25] = second compound 3.16 µM, first compound 0.0316 µM
[26] = second compound 3.16 µM, first compound 0.1 µM
[27] = second compound 3.16 µM, first compound 0.316 µM
[28] = second compound 3.16 µM, first compound 1 µM
[29] = second compound 3.16 µM, first compound 3.16 µM
[30] = second compound 3.16 µM, first compound 10 µM
[31] = second compound 10 µM, first compound 0.0316 µM
[32] = second compound 10 µM, first compound 0.1 µM
[33] = second compound 10 µM, first compound 0.316 µM
[34] = second compound 10 µM, first compound 1 µM
[35] = second compound 10 µM, first compound 3.16 µM
[36] = second compound 10 µM, first compound 10 µM
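Further: spheroids exposed to drugs for seven days before measurement.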
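Wherever viability, T/C is given: percent viability relative to DMSO vehicle control wells taken as 100%.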

SMILES: CC1COCCN1c1cc(C2(S(C)(=N)=O)CC2)nc(-c2ccnc3[nH]ccc23)n1 (stereo unspecified) + Nc1ccc(C#CCN(C(=O)Cc2ncc(C(F)(F)F)cc2C(F)(F)F)c2ccc(F)cc2)nn1
- IC50 (second compound 0.0316 µM): 4990 nM
- IC50 (second compound 0.1 µM): 5250 nM
- IC50 (second compound 0.316 µM): 4650 nM
- IC50 (second compound 1 µM): 4270 nM
- IC50 (second compound 3.16 µM): 4310 nM
- IC50 (second compound 10 µM): 3670 nM
- viability, T/C [1]: 115%
- viability, T/C [2]: 104%
- viability, T/C [3]: 112%
- viability, T/C [4]: 100%
- viability, T/C [5]: 68%
- viability, T/C [6]: 22.5%
- viability, T/C [7]: 99.5%
- viability, T/C [8]: 109%
- viability, T/C [9]: 104%
- viability, T/C [10]: 97.5%
- viability, T/C [11]: 70.3%
- viability, T/C [12]: 24.3%
- viability, T/C [13]: 109%
- viability, T/C [14]: 122%
- viability, T/C [15]: 104%
- viability, T/C [16]: 95.2%
- viability, T/C [17]: 64.8%
- viability, T/C [18]: 20.9%
- viability, T/C [19]: 110%
- viability, T/C [20]: 111%
- viability, T/C [21]: 109%
- viability, T/C [22]: 109%
- viability, T/C [23]: 61.6%
- viability, T/C [24]: 17.3%
- viability, T/C [25]: 116%
- viability, T/C [26]: 106%
- viability, T/C [27]: 108%
- viability, T/C [28]: 105%
- viability, T/C [29]: 59.9%
- viability, T/C [30]: 23.1%
- viability, T/C [31]: 122%
- viability, T/C [32]: 114%
- viability, T/C [33]: 113%
- viability, T/C [34]: 111%
- viability, T/C [35]: 55%
- viability, T/C [36]: 15.5%

SMILES: C=CCn1c(=O)c2cnc(Nc3ccc(N4CCN(C)CC4)cc3)nc2n1-c1cccc(C(C)(C)O)n1 + COC1C(OC(N)=O)C(O)C(Oc2ccc3c(O)c(NC(=O)c4ccc(O)c(CC=C(C)C)c4)c(=O)oc3c2C)OC1(C)C
- IC50 (second compound 0.0316 µM): 548 nM
- IC50 (second compound 0.1 µM): 527 nM
- IC50 (second compound 0.316 µM): 535 nM
- IC50 (second compound 1 µM): 549 nM
- IC50 (second compound 3.16 µM): 596 nM
- IC50 (second compound 10 µM): 571 nM
- viability, T/C (second compound 0.0316 µM, first compound 0.00316 µM): 107%
- viability, T/C (second compound 0.0316 µM, first compound 0.01 µM): 98.3%
- viability, T/C [1]: 102%
- viability, T/C [2]: 95.5%
- viability, T/C [3]: 81.2%
- viability, T/C [4]: 16.6%
- viability, T/C (second compound 0.1 µM, first compound 0.00316 µM): 99.7%
- viability, T/C (second compound 0.1 µM, first compound 0.01 µM): 104%
- viability, T/C [7]: 102%
- viability, T/C [8]: 103%
- viability, T/C [9]: 76.1%
- viability, T/C [10]: 17.3%
- viability, T/C (second compound 0.316 µM, first compound 0.00316 µM): 102%
- viability, T/C (second compound 0.316 µM, first compound 0.01 µM): 104%
- viability, T/C [13]: 104%
- viability, T/C [14]: 103%
- viability, T/C [15]: 74.7%
- viability, T/C [16]: 20.5%
- viability, T/C (second compound 1 µM, first compound 0.00316 µM): 112%
- viability, T/C (second compound 1 µM, first compound 0.01 µM): 101%
- viability, T/C [19]: 105%
- viability, T/C [20]: 104%
- viability, T/C [21]: 79.2%
- viability, T/C [22]: 18.2%
- viability, T/C (second compound 3.16 µM, first compound 0.00316 µM): 104%
- viability, T/C (second compound 3.16 µM, first compound 0.01 µM): 106%
- viability, T/C [25]: 111%
- viability, T/C [26]: 110%
- viability, T/C [27]: 86.8%
- viability, T/C [28]: 19.8%
- viability, T/C (second compound 10 µM, first compound 0.00316 µM): 101%
- viability, T/C (second compound 10 µM, first compound 0.01 µM): 98.8%
- viability, T/C [31]: 99.5%
- viability, T/C [32]: 105%
- viability, T/C [33]: 82.9%
- viability, T/C [34]: 18.8%

SMILES: CC1COCCN1c1cc(-c2ccnn2C)c2ccnc(-c3ccn[nH]3)c2n1 (stereo unspecified) + COC1C(OC(N)=O)C(O)C(Oc2ccc3c(O)c(NC(=O)c4ccc(O)c(CC=C(C)C)c4)c(=O)oc3c2C)OC1(C)C
- IC50 (second compound 0.0316 µM): 205 nM
- IC50 (second compound 0.1 µM): 217 nM
- IC50 (second compound 0.316 µM): 209 nM
- IC50 (second compound 1 µM): 220 nM
- IC50 (second compound 3.16 µM): 223 nM
- IC50 (second compound 10 µM): 198 nM
- viability, T/C [1]: 97%
- viability, T/C [2]: 71.8%
- viability, T/C [3]: 38.5%
- viability, T/C [4]: 19.2%
- viability, T/C [5]: 22.8%
- viability, T/C [6]: 25.9%
- viability, T/C [7]: 97.3%
- viability, T/C [8]: 75.7%
- viability, T/C [9]: 38%
- viability, T/C [10]: 21.9%
- viability, T/C [11]: 20.1%
- viability, T/C [12]: 23.9%
- viability, T/C [13]: 97.8%
- viability, T/C [14]: 77.2%
- viability, T/C [15]: 35.4%
- viability, T/C [16]: 21.2%
- viability, T/C [17]: 23.2%
- viability, T/C [18]: 29.6%
- viability, T/C [19]: 103%
- viability, T/C [20]: 79%
- viability, T/C [21]: 37.8%
- viability, T/C [22]: 18.8%
- viability, T/C [23]: 23.2%
- viability, T/C [24]: 26.6%
- viability, T/C [25]: 100%
- viability, T/C [26]: 77.9%
- viability, T/C [27]: 39%
- viability, T/C [28]: 20.4%
- viability, T/C [29]: 26.1%
- viability, T/C [30]: 27.9%
- viability, T/C [31]: 105%
- viability, T/C [32]: 70.8%
- viability, T/C [33]: 38%
- viability, T/C [34]: 16.7%
- viability, T/C [35]: 25.9%
- viability, T/C [36]: 33.7%
